Converted amounts (≈) assume the structure as drawn.
Tests used:
[1] = set-up: species or system beagle dogs; settings: dog, in vivo
Text: Toxicokinetic parameters were estimated using WinNonlin pharmacokinetic software version 5.2.1 (Pharsight Corp.). A non-compartmental approach consistent with the extravascular route of administration was used for parameter estimation. All parameters were generated from individual amikacin and fosfomycin concentrations in plasma from Days 1 and 7.

[2] = system: MRSA; settings: data from the 1980's; cited from earlier work
[3] = system: pseudomonas isolates; settings: most pseudomonas isolates; cited from earlier work
[4] = Aerosol particle size distribution (MMAD) in the dog study; assay type: physicochemical; settings: aerosol of the combined formulation, analytical methods
[5] = system: Pseudomonas; settings: cited from earlier work
[6] = system: Stenotrophomonas maltophilia; settings: cited from earlier work
[7] = system: Pseudomonas aeruginosa; settings: cited from earlier work

SMILES | accumulation following repeat dosing [1] | MIC90 [2] [µg/mL] | MIC90 [3] [µg/mL] | particle size distribution (MMAD) [4] [μm] | MIC90 [5] [µg/mL] | MIC90 [6] [µg/mL] | factor of increase of in vitro activity of amikacin by fosfomycin [7]
C[C@@H]1O[C@@H]1P(=O)(O)O [fosfomycin] | no clear indication of accumulation | 32 (≈ 232 µM) | – | – | – | – | –
NC[C@H]1O[C@H](O[C@H]2[C@H](O)[C@@H](O[C@H]3O[C@H](CO)[C@@H](O)[C@H](N)[C@H]3O)[C@H](N)C[C@@H]2N)[C@H](N)C[C@@H]1O [tobramycin] | – | – | 64 (≈ 137 µM) | – | – | – | –
NCC[C@H](O)C(=O)N[C@@H]1C[C@H](N)[C@@H](O[C@H]2O[C@H](CN)[C@@H](O)[C@H](O)[C@H]2O)[C@H](O)[C@H]1O[C@H]1O[C@H](CO)[C@@H](O)[C@H](N)[C@H]1O [amikacin] | no clear indication of accumulation | – | – | 2.80 | 32 (≈ 54.6 µM) | > 64 | 64

From patent US10471083B2, “Formulations of aminoglycoside and fosfomycin in combination for treatment of ventilator associated pneumonia (VAP) and ventilator associated tracheal (VAT) bronchitis” (SAVARA INC., priority 2011, dated 2019)
